Patent US9023864B2, “Indole derivatives as CRTH2 receptor antagonists” (Merck Sharp & Dohme Corp., priority 2009, dated 2015)

The molecules below were run against T1, hCRTH2 (Homo sapiens, UniProt Q9Y5Y4) (assay: Radioligand binding assay ([3H]PGD2 competition, membranes from HEK-hCRTH2 cell line)). Conditions: 0.7 nM [3H]PGD2, membrane protein from HEK-hCRTH2 cell line, 60 min at room temperature; values given as ranges.
T1 construct: expressed in transfected cells; host or cells: HEK cell line expressing hCRTH2 (HEK-hCRTH2); membranes
T1 sequence (Q9Y5Y4 1-395): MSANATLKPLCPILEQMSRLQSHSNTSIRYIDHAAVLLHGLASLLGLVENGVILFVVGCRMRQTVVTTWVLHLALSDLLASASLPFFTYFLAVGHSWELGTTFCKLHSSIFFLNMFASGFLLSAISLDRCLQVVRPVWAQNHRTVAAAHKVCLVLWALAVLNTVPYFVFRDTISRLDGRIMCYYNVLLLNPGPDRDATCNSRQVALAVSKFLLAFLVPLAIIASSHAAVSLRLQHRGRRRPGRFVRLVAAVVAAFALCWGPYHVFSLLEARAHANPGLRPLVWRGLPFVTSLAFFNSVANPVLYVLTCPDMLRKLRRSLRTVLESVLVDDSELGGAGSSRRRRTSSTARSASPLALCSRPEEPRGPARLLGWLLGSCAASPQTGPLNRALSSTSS
Experimental: Radioligand Binding Assay.
Radioligand binding assays were performed at room temperature in 10 mM HEPES/KOH pH 7.4, 1 mM EDTA containing 10 mM MnCl2 and 0.7 nM [^3H]PGD2 (NEN, 171 Ci mmol^−1), in a final volume of 0.2 ml. Competing ligands were diluted in dimethylsulfoxide (Me2SO) that was kept constant at 1% (v/v) of the final incubation volume. The reaction was initiated by the addition of 8-20 μg of membrane protein prepared from a HEK-hCRTH2 cell line. Total and non-specific binding were determined in the absence and the presence of 10 μM PGD2, respectively. Under these conditions, specific binding (total minus non-specific) of the radioligand to the receptor reached equilibrium within 50 min and was stable up to 180 min. The reaction was routinely conducted for 60 min at room temperature and terminated by rapid filtration through prewetted Unifilters GF/C (Packard), using a Tomtec MachIII semi-automated harvester (for HEK-hCRTH2). The filters were then washed with 4 ml of the same buffer and residual radioligand bound to the filter was determined by liquid scintillation counting following equilibration in 25 μl Ultima Gold F™ (Unifilter) (Packard). The Ki (in nM) values for representative compounds of the present invention are as follows: ≦5: Examples 3.1, 5.1, 6.1, 7.1, 8.1/8A, 9.1, 26, 27.1, 28.1, 29.1, 30, 31.1, 31.3, 32.1, 32.4, 33.1, 34.1, 36.1, 38.1, 39, 40, 41; >5 and ≦10: Examples, 4, 5.3, 29.2; >10 and ≦50: Examples 1, 10, 14, 21, 22, 25, 31.4, 32.3, 35, 36.2, 37; >50 and ≦100: Examples 2, 5.4, 6.2, 27.2, 28.2; >100: Examples 3.2, 5.2, 7.2, 8.2, 9.2, 11, 12, 13, 15, 16, 17, 18, 19, 20, 23, 24, 31.2, 32.2, 33.2, 34.2, 38.2.

Compound | Ki [nM]
CC1C(n2nncc2Cc2ccc(F)cc2)CCc2c(CC(=O)O)c3cccc(F)c3n21 (single isomer, unassigned) [Example 38.1, {4-Fluoro-7-[5-(4-fluorobenzyl)-1H-1,2,3-triazol-1-yl]-6-methyl-6,7,8,9-tetrahydropyrido[1,2-α]indol-10-yl}acetic acid] | ≤ 5
CC(O)(c1ccc(F)cc1)c1cnnn1C1CCc2c(CC(=O)O)c3ccccc3n2C1 (single isomer, unassigned) [Example 5.3, (7-{5-[1-(4-Fluoro-phenyl)-1-hydroxy-ethyl]-[1,2,3]triazol-1-yl}-6,7,8,9-tetrahydropyrido[1,2-α]indol-10-yl)-acetic acid] | 5 to 10
O=C(O)Cc1c2n(c3c(F)cccc13)CC(n1nncc1Cc1ccc(F)c(F)c1)CC2 (single isomer, unassigned) [Example 33.2, {7-[5-(3,4-difluorobenzyl)-1H-1,2,3-triazol-1-yl]-4-fluoro-6,7,8,9-tetrahydropyrido[1,2-a]-indol-10-yl}acetic acid] | > 100
O=C(O)Cc1c2n(c3ccccc13)CC(n1nncc1C1(c3ccccc3)CCCC1)CC2 (single isomer, unassigned) [Example 6.2, {7-[5-(1-Phenyl-cyclopentyl)-[1,2,3]triazol-1-yl]-6,7,8,9-tetrahydropyrido[1,2-α]indol-10-yl}-acetic acid] | 50 to 100
O=C(O)Cc1c2n(c3ccccc13)CC(n1nncc1Cc1ccccc1)CC2 (single isomer, unassigned) [Example 3.1, [7-(5-Benzyl-[1,2,3]triazol-1-yl)-6,7,8,9-tetrahydropyrido[1,2-α]indol-10-yl]-acetic acid] | ≤ 5

More lines, now with the values ahead:

Ki [nM] | Compound
10 to 50 | CC(c1ccccc1)c1cnnn1C1CCc2c(CC(=O)O)c3cccc(F)c3n2C1 (single isomer, unassigned) [Example 32.3, {4-Fluoro-7-[5-(1-phenyl-ethyl)-[1,2,3]triazol-1-yl]-6,7,8,9-tetrahydropyrido[1,2-α]indol-10-yl}-acetic acid]
≤ 5 | CC(O)(c1ccc(F)cc1)c1cnnn1C1CCc2c(CC(=O)O)c3cccc(F)c3n2C1 (single isomer, unassigned) [Example 31.3]
50 to 100 | CC(O)(c1ccc(F)cc1)c1cnnn1C1CCc2c(CC(=O)O)c3ccccc3n2C1 (single isomer, unassigned) [Example 5.4, (7-{5-[1-(4-Fluoro-phenyl)-1-hydroxy-ethyl]-[1,2,3]triazol-1-yl}-6,7,8,9-tetrahydropyrido[1,2-α]indol-10-yl)-acetic acid]
> 100 | O=C(O)Cc1c2n(c3c(F)cccc13)CC(n1nncc1Cc1ccc(F)cc1)CC2 (single isomer, unassigned) [Example 8.2, {4-Fluoro-7-[5-(4-fluoro-benzyl)-[1,2,3]triazol-1-yl]-6,7,8,9-tetrahydropyrido[1,2-α]indol-10-yl}-acetic acid]
10 to 50 | Cc1c(Cc2ccc(F)cc2)nnn1C1CCc2c(CC(=O)O)c3cccc(F)c3n2C1 (racemic) [Example 37, {4-Fluoro-7-[4-(4-fluorobenzyl)-5-methyl-1H-1,2,3-triazol-1-yl]-6,7,8,9-tetrahydropyrido[1,2-α]indol-10-yl}acetic acid]
≤ 5 | CC(c1ccccc1)c1cnnn1C1CCc2c(CC(=O)O)c3cccc(F)c3n2C1 (single isomer, unassigned) [Example 32.1, {4-Fluoro-7-[5-(1-phenyl-ethyl)-[1,2,3]triazol-1-yl]-6,7,8,9-tetrahydropyrido[1,2-α]indol-10-yl}-acetic acid]
